According to PubChem BioAssay (NCI):
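Where inhibition never reached the appropriate level, the endpoint shown equals the highest concentration tested. Otherwise, values were interpolated linearly from a five-concentration, 48-hour dose response in 96-well plates. Abbreviation: GI50, concentration required for 50% inhibition of growth. TGI is the concentration that stops growth completely.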 *1 amine or outer side, *2 acyl side, *3 side chain or, on linkers, in order; H or OH if unused. Where a SMILES comes first, the peptide text is derived from it. [ ]: non-standard residue; d: D form. The star is where a group is joined. ξ: configuration not given here. X27 = O=C([C@H]1CCC[C@H]1N[*:1])[*:2]; ξW = NC(Cc1c[nH]c2ccccc12)C(=O)O; ξF = NC(Cc1ccccc1)C(=O)O; Boc = CC(C)(C)OC(=O)*; ξK = NCCCCC(N)C(=O)O; ξT = CC(O)C(N)C(=O)O; tBu = CC(C)(C)*

Columns and labels:
Experiment in all cases: NCI tumour cell line growth inhibition, 48 h
ACHN renal = tested on: ACHN renal
CAKI-1 renal = tested on: CAKI-1 renal
M14 melanoma = tested on: M14 melanoma
MALME-3M melanoma = tested on: MALME-3M melanoma
MDA-N = tested on: MDA-N
TK-10 renal = tested on: TK-10 renal
A498 renal = tested on: A498 renal

`CCCC(=O)NC(Nc1cc(C)ccn1)(C(=O)OCC)C(F)(F)F` (stereo not given) showed a TGI (ACHN renal) of over 100 µM, a TGI (CAKI-1 renal) of over 100 µM and a TGI (M14 melanoma) of over 100 µM. It also gave a TGI (MALME-3M melanoma) of over 100 µM, a TGI (MDA-N) of over 100 µM and a TGI (TK-10 renal) of over 100 µM.
`CC(C)(C)n1c(=O)n2n(c1=O)Cc1cccc3cccc(c13)C2` showed a TGI (ACHN renal) of 44.7 µM, a TGI (CAKI-1 renal) of 36.9 µM and a TGI (M14 melanoma) of 34.1 µM. The TGI (MALME-3M melanoma) was 31.7 µM, the TGI (MDA-N) was 50.8 µM and the TGI (TK-10 renal) was over 100 µM.
Compound `CCN(CC)C(=O)Cn1c(-c2ccccc2)cc2ccccc21` has a TGI (ACHN renal) of over 100 µM, a TGI (M14 melanoma) of over 100 µM and a TGI (MALME-3M melanoma) of over 100 µM. For the same compound, the TGI (MDA-N) was over 100 µM and the TGI (TK-10 renal) was over 100 µM.
For `O=C(c1ccccc1)c1ccc(N2C(=O)/C(=C/Cc3ccco3)N=C2c2ccccc2)c(N2C(=O)/C(=C/Cc3ccco3)N=C2c2ccccc2)c1`, the TGI (A498 renal) was over 100 µM, the TGI (ACHN renal) was over 100 µM and the TGI (CAKI-1 renal) was over 100 µM. For the same compound, the TGI (M14 melanoma) was over 100 µM, the TGI (MDA-N) was over 100 µM and the TGI (TK-10 renal) was over 100 µM.
Work on `Cc1c2ccnc(C(=O)NCCN(C)C)c2cc2c3cc(O)ccc3n(C)c12` yielded a TGI (ACHN renal) of 0.397 µM, a TGI (M14 melanoma) of 1.47 µM and a TGI (MALME-3M melanoma) of 2.06 µM. The TGI (MDA-N) was 1.93 µM and the TGI (TK-10 renal) was 9.05 µM.
With `c1cnn(C23C4C5C6C4C2C6C53)c1` (stereo not given) the TGI (A498 renal) was over 100 µM, the TGI (ACHN renal) was over 100 µM and the TGI (MDA-N) was over 100 µM. For the same compound, the TGI (TK-10 renal) was over 100 µM.
In the case of `CCN(CC)Cc1cc(Nc2c3ccccc3nc3c2[nH]c2ccccc23)cc(CN(CC)CC)c1O`, the TGI (A498 renal) is reported as 2.89 µM, the TGI (ACHN renal) is reported as 3.48 µM and the TGI (CAKI-1 renal) is reported as 4.26 µM. The TGI (M14 melanoma) was 1.33 µM, the TGI (MDA-N) was 2.07 µM and the TGI (TK-10 renal) was 11.7 µM.
`CC(OC(C)(C)C)C1NC(=O)C(CCCCNC(=O)OC(C)(C)C)NC(=O)C(Cc2c[nH]c3ccccc23)NC(=O)C(Cc2ccccc2)NC(=O)[C@H]2CCC[C@H]2NC(=O)C(Cc2ccccc2)NC1=O` (stereo not given in full) (cyclo([X27][ξF][ξW][ξK](Boc)[ξT](tBu)[ξF])) was tested, and the TGI (ACHN renal) was over 100 µM, the TGI (CAKI-1 renal) was over 100 µM and the TGI (M14 melanoma) was over 100 µM. The TGI (MALME-3M melanoma) was over 100 µM and the TGI (MDA-N) was over 100 µM.
Compound `COc1ccc(NC(=S)N/N=C\c2ccc(NC(C)=O)cc2)cc1` has a TGI (ACHN renal) of over 100 µM, a TGI (CAKI-1 renal) of over 100 µM and a TGI (M14 melanoma) of over 100 µM. The TGI (MALME-3M melanoma) was over 100 µM, the TGI (MDA-N) was over 100 µM and the TGI (TK-10 renal) was over 100 µM.
`COc1ccc(N=C2S/C(=N\C(=Nc3ccccc3)SCc3ccccc3)N(c3ccccc3)C2=Nc2ccc(OC)cc2)cc1` showed a TGI (M14 melanoma) of over 100 µM, a TGI (MALME-3M melanoma) of over 100 µM and a TGI (MDA-N) of over 100 µM. It also gave a TGI (TK-10 renal) of over 100 µM.
For `CC(=O)OCC(C)C1=C(OC(C)=O)C(=O)C2(C)C/C=C(/C)CC/C=C(\C)CCC(OC(C)=O)C(C)CCC12` (stereo not given), the TGI (ACHN renal) was 39.3 µM, the TGI (M14 melanoma) was 34.2 µM and the TGI (MDA-N) was 33.5 µM. The TGI (TK-10 renal) was 39 µM.
Work on `FC(F)(F)c1ccc(Cc2nc3cc4ccccc4cc3[nH]2)cc1` yielded a TGI (A498 renal) of over 100 µM, a TGI (ACHN renal) of over 100 µM and a TGI (CAKI-1 renal) of over 100 µM. It also gave a TGI (M14 melanoma) of over 100 µM, a TGI (MALME-3M melanoma) of over 100 µM and a TGI (TK-10 renal) of over 100 µM.
`CC(=O)OC(CN1CCN(c2ccccn2)CC1)Cn1sc2nc(C)cc(C)c2c1=O` (stereo not given) showed a TGI (A498 renal) of 32.2 µM, a TGI (ACHN renal) of 30 µM and a TGI (CAKI-1 renal) of 37.2 µM. The TGI (M14 melanoma) was 31.4 µM, the TGI (MALME-3M melanoma) was 32.6 µM and the TGI (TK-10 renal) was 31.3 µM.
In the case of `Cn1c(NNc2ccccc2)cc(=O)[nH]c1=O`, the TGI (ACHN renal) is reported as over 100 µM, the TGI (CAKI-1 renal) is reported as over 100 µM and the TGI (M14 melanoma) is reported as over 100 µM. The TGI (MALME-3M melanoma) was over 100 µM, the TGI (MDA-N) was 45.4 µM and the TGI (TK-10 renal) was over 100 µM.
`Cc1cc(O)c2c(c1O)C(=O)c1cccc(O)c1C2=O` was tested, and the TGI (ACHN renal) was over 100 µM, the TGI (CAKI-1 renal) was over 100 µM and the TGI (M14 melanoma) was over 100 µM. It also gave a TGI (MDA-N) of over 100 µM and a TGI (TK-10 renal) of over 100 µM.
`Nc1ccc2nc3c(nc2c1)C(=O)c1ccccc1-3` showed a TGI (ACHN renal) of over 100 µM, a TGI (M14 melanoma) of over 100 µM and a TGI (MALME-3M melanoma) of over 100 µM. It also gave a TGI (MDA-N) of over 100 µM and a TGI (TK-10 renal) of over 100 µM.
`O=C(NC(=S)Nc1ccc2c(c1)Sc1ccccc1O2)c1ccc([N+](=O)[O-])cc1` gave a TGI (ACHN renal) of over 100 µM, a TGI (CAKI-1 renal) of over 100 µM and a TGI (M14 melanoma) of over 100 µM. The TGI (MALME-3M melanoma) was over 100 µM, the TGI (MDA-N) was over 100 µM and the TGI (TK-10 renal) was over 100 µM.
With `OCc1cc2c(ccc3sc4ccc5sc6ccc7ncccc7c6c5c4c32)s1` the TGI (A498 renal) was over 100 µM, the TGI (ACHN renal) was over 100 µM and the TGI (CAKI-1 renal) was 36.6 µM. For the same compound, the TGI (MDA-N) was 23.9 µM and the TGI (TK-10 renal) was over 100 µM.
`O=P1(Oc2ccccc2)N=P(c2ccccc2)(c2ccccc2)C=C(c2ccc(Cl)cc2)N1` (stereo not given) was tested, and the TGI (ACHN renal) was 25.6 µM, the TGI (CAKI-1 renal) was 23 µM and the TGI (M14 melanoma) was 21.1 µM. It also gave a TGI (MALME-3M melanoma) of 29.6 µM, a TGI (MDA-N) of 22.8 µM and a TGI (TK-10 renal) of 26.8 µM.
In the case of `CC(=O)OCC(OC(C)=O)C(OC(C)=O)C(/C=N\Nc1nc2ccccc2c(=O)[nH]1)=N\Nc1nc2ccccc2c(=O)[nH]1` (stereo not given), the TGI (ACHN renal) is reported as over 100 µM, the TGI (CAKI-1 renal) is reported as over 100 µM and the TGI (M14 melanoma) is reported as over 100 µM. For the same compound, the TGI (MALME-3M melanoma) was over 100 µM and the TGI (MDA-N) was over 100 µM.
`CC(=O)C1C(=O)C(=O)N(c2ccccc2)C1=O` (stereo not given) was tested, and the TGI (ACHN renal) was over 100 µM, the TGI (CAKI-1 renal) was over 100 µM and the TGI (M14 melanoma) was over 100 µM. It also gave a TGI (MDA-N) of over 100 µM and a TGI (TK-10 renal) of over 100 µM.
With `c1ccc(N2N=C(c3cccc(Nc4ccncc4)c3)CC2c2ccc3c(c2)OCO3)cc1` (stereo not given) the GI50 (A498 renal) was 1.24 µM, the TGI (A498 renal) was 5.58 µM and the GI50 (ACHN renal) was 1.64 µM. It also gave a TGI (ACHN renal) of 3.21 µM, a GI50 (CAKI-1 renal) of 1.3 µM and a TGI (CAKI-1 renal) of 2.69 µM. The GI50 (M14 melanoma) was 1.63 µM, the TGI (M14 melanoma) was 3.48 µM and the GI50 (MALME-3M melanoma) was 1.57 µM. For the same compound, the TGI (MALME-3M melanoma) was 3.06 µM, the GI50 (TK-10 renal) was 1.94 µM and the TGI (TK-10 renal) was 3.99 µM.
`CCOP(=O)(OCC)C(C)(C)N(C)/C(F)=N/C(F)(F)F` showed a TGI (ACHN renal) of over 100 µM, a TGI (CAKI-1 renal) of over 100 µM and a TGI (M14 melanoma) of over 100 µM. The TGI (MALME-3M melanoma) was over 100 µM, the TGI (MDA-N) was over 100 µM and the TGI (TK-10 renal) was over 100 µM.
